Data reported in US20060223996A1, “IL-12 modulatory compounds” (Synta Pharmaceuticals Corp., priority 2004, published 2006).
pIC50: −log10 of the molar value.

System: IL-12
Test: Human in vitro assay: inhibition of IL-12 production in IFNγ/LPS- or IFNγ/SAC-stimulated human PBMC or THP-1 cells (ELISA)
Format: cell-based
Details: read-out: IC50 Range (representative in vitro IC50 data)
Summary of the method: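 Sandwich ELISA for IL-12 (p70, p40) on supernatants collected 18 h after stimulation gave IC50 values; MTS monitored viability. THP-1 cells: IFNγ 100 U/mL priming 22 h, SAC 0.025%. PBMC: IFNγ 30 U/mL for 22 h plus LPS 1 μg/mL, or IFNγ 100 U/mL plus SAC 0.01%. Final DMSO 0.25%.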

Row | Structure (SMILES) | pIC50
1 | O=C(Nc1cccc([N+](=O)[O-])c1)Nc1cc(OCCN2CCOCC2)nc(N2CCOCC2)n1 [Compound 128, 1-[2-Morpholin-4-yl-6-(2-morpholin-4-yl-ethoxy)-pyrimidin-4-yl]-3-(3-nitro-phenyl)-urea] | ≤ 6.00
2 | O=C(Nc1cc(OCCN2CCOCC2)nc(N2CCOCC2)n1)Nc1ccccc1Br [Compound 129, 1-(2-Bromo-phenyl)-3-[2-morpholin-4-yl-6-(2-morpholin-4-yl-ethoxy)-pyrimidin-4-yl]-urea] | ≤ 6.00
3 | Cn1c(=O)sc2cc(NC(=O)Nc3cc(OCCN4CCOCC4)nc(N4CCOCC4)n3)ccc21 [Compound 133, 1-(3-Methyl-2-oxo-2,3-dihydro-benzothiazol-6-yl)-3-[2-morpholin-4-yl-6-(2-morpholin-4-yl-ethoxy)-pyrimidin-4-yl]-urea] | ≤ 6.00
4 | Cn1c(=O)oc2cc(NC(=O)Nc3cc(OCCN4CCOCC4)nc(N4CCOCC4)n3)ccc21 [Compound 134, 1-(3-Methyl-2-oxo-2,3-dihydro-benzooxazol-6-yl)-3-[2-morpholin-4-yl-6-(2-morpholin-4-yl-ethoxy)-pyrimidin-4-yl]-urea] | ≤ 6.00
5 | O=C(Nc1cc(OCCN2CCOCC2)nc(N2CCOCC2)n1)Nc1cccc2c(O)cccc12 [Compound 138, 1-(5-Hydroxy-naphthalen-1-yl)-3-[2-morpholin-4-yl-6-(2-morpholin-4-yl-ethoxy)-pyrimidin-4-yl]-urea] | ≤ 6.00
6 | O=C(Nc1cc(OCCN2CCOCC2)nc(N2CCOCC2)n1)Nc1cccc2ncccc12 [Compound 140, 1-[2-Morpholin-4-yl-6-(2-morpholin-4-yl-ethoxy)-pyrimidin-4-yl]-3-quinolin-5-yl-urea] | ≤ 6.00
7 | O=C(Nc1cc(OCCN2CCOCC2)nc(N2CCOCC2)n1)Nc1nnc(C2CC2)s1 [Compound 141, 1-(5-Cyclopropyl-[1,3,4]thiadiazol-2-yl)-3-[2-morpholin-4-yl-6-(2-morpholin-4-yl-ethoxy)-pyrimidin-4-yl]-urea] | ≤ 6.00
8 | Cc1ccc(-c2csc(NC(=O)Nc3cc(OCCN4CCOCC4)nc(N4CCOCC4)n3)n2)cc1 [Compound 142, 1-[2-Morpholin-4-yl-6-(2-morpholin-4-yl-ethoxy)-pyrimidin-4-yl]-3-(4-p-tolyl-thiazol-2-yl)-urea] | ≤ 6.00
9 | O=C(Nc1cc(OCCN2CCOCC2)nc(N2CCOCC2)n1)Nc1cc(-c2ccco2)n[nH]1 [Compound 144, 1-(5-Furan-2-yl-2H-pyrazol-3-yl)-3-[2-morpholin-4-yl-6-(2-morpholin-4-yl-ethoxy)-pyrimidin-4-yl]-urea] | ≤ 6.00
10 | O=C(Nc1ccnc(Cl)c1)c1cc(OCCN2CCOCC2)nc(N2CCOCC2)n1 [Compound 149, 2-Morpholin-4-yl-6-(2-morpholin-4-yl-ethoxy)-pyrimidine-4-carboxylic acid (2-chloro-pyridin-4-yl)-amide] | ≤ 6.00
11 | CC(=O)c1cccc(NC(=O)c2cc(OCCN3CCOCC3)nc(N3CCOCC3)n2)c1 [Compound 152, 2-Morpholin-4-yl-6-(2-morpholin-4-yl-ethoxy)-pyrimidine-4-carboxylic acid (3-acetyl-phenyl)-amide] | ≤ 6.00
12 | C/C(=N\N(C)C)c1cccc(NC(=O)c2cc(OCCN3CCOCC3)nc(N3CCOCC3)n2)c1 [Compound 153, (E)-N-(3-(1-(2,2-dimethylhydrazono)ethyl)phenyl)-2-morpholino-6-(2-morpholinoethoxy)pyrimidine-4-carboxamide] | > 6.00

More lines, now with the values ahead:

Row | pIC50 | Structure (SMILES)
13 | > 6.00 | O=C(Nc1cccc(Cl)c1)Nc1cc(OCCN2CCOCC2)nc(N2CCOCC2)n1 [Compound 126, 1-(3-Chloro-phenyl)-3-[2-morpholin-4-yl-6-(2-morpholin-4-yl-ethoxy)-pyrimidin-4-yl]-urea]
14 | > 6.00 | N#Cc1cccc(NC(=O)Nc2cc(OCCN3CCOCC3)nc(N3CCOCC3)n2)c1 [Compound 127, 1-(3-Cyano-phenyl)-3-[2-morpholin-4-yl-6-(2-morpholin-4-yl-ethoxy)-pyrimidin-4-yl]-urea]
15 | > 6.00 | O=C(Nc1cccc(I)c1)Nc1cc(OCCN2CCOCC2)nc(N2CCOCC2)n1 [Compound 130, 1-(3-Iodo-phenyl)-3-[2-morpholin-4-yl-6-(2-morpholin-4-yl-ethoxy)-pyrimidin-4-yl]-urea]
16 | > 6.00 | CCc1cccc(NC(=O)Nc2cc(OCCN3CCOCC3)nc(N3CCOCC3)n2)c1 [Compound 131, 1-(3-Ethyl-phenyl)-3-[2-morpholin-4-yl-6-(2-morpholin-4-yl-ethoxy)-pyrimidin-4-yl]-urea]
17 | > 6.00 | O=C(Nc1cc(OCCN2CCOCC2)nc(N2CCOCC2)n1)Nc1ccccc1Cl [Compound 132, 1-(2-Chloro-phenyl)-3-[2-morpholin-4-yl-6-(2-morpholin-4-yl-ethoxy)-pyrimidin-4-yl]-urea]
18 | > 6.00 | O=C(Nc1cc(OCCN2CCOCC2)nc(N2CCOCC2)n1)Nc1nc2ccc(Cl)cc2o1 [Compound 135, 1-(6-Chloro-benzooxazol-2-yl)-3-[2-morpholin-4-yl-6-(2-morpholin-4-yl-ethoxy)-pyrimidin-4-yl]-urea]
19 | > 6.00 | Cc1ccc2cc(NC(=O)Nc3cc(OCCN4CCOCC4)nc(N4CCOCC4)n3)ccc2n1 [Compound 136, 1-(2-Methyl-quinolin-6-yl)-3-[2-morpholin-4-yl-6-(2-morpholin-4-yl-ethoxy)-pyrimidin-4-yl]-urea]
20 | > 6.00 | O=C(Nc1ccc2[nH]ccc2c1)Nc1cc(OCCN2CCOCC2)nc(N2CCOCC2)n1 [Compound 137, 1-(1H-Indol-5-yl)-3-[2-morpholin-4-yl-6-(2-morpholin-4-yl-ethoxy)-pyrimidin-4-yl]-urea]
21 | > 6.00 | O=C(Nc1cc(OCCN2CCOCC2)nc(N2CCOCC2)n1)Nc1nc2ccc(Cl)cc2s1 [Compound 139, 1-(6-Chloro-benzothiazol-2-yl)-3-[2-morpholin-4-yl-6-(2-morpholin-4-yl-ethoxy)-pyrimidin-4-yl]-urea]
22 | > 6.00 | O=C(Nc1ccc(O)cc1)Nc1cc(OCCN2CCOCC2)nc(N2CCOCC2)n1 [Compound 143, 1-(4-Hydroxy-phenyl)-3-[2-morpholin-4-yl-6-(2-morpholin-4-yl-ethoxy)-pyrimidin-4-yl]-urea]
23 | > 6.00 | Cc1c(C)n(C)c2ccc(NC(=O)c3cc(OCCN4CCOCC4)cc(N4CCOCC4)n3)cc12 [Compound 146, 6-Morpholin-4-yl-4-(2-morpholin-4-yl-ethoxy)-pyridine-2-carboxylic acid (1,2,3-trimethyl-1H-indol-5-yl)-amide]
24 | > 6.00 | Cc1c(C)n(C)c2ccc(NC(=O)c3cc(N4CCOCC4)cc(N4CCOCC4)n3)cc12 [Compound 147, 4,6-Di-morpholin-4-yl-pyridine-2-carboxylic acid (1,2,3-trimethyl-1H-indol-5-yl)-amide]
25 | > 6.00 | NC(=O)c1ccc(NC(=O)c2cc(OCCN3CCOCC3)nc(N3CCOCC3)n2)nc1 [Compound 150, 2-Morpholin-4-yl-6-(2-morpholin-4-yl-ethoxy)-pyrimidine-4-carboxylic acid (5-carbamoyl-pyridin-2-yl)-amide]
26 | > 6.00 | O=C(Nc1ccnc(N2CCCC2)c1)c1cc(OCCN2CCOCC2)nc(N2CCOCC2)n1 [Compound 151, 2-Morpholin-4-yl-6-(2-morpholin-4-yl-ethoxy)-pyrimidine-4-carboxylic acid (2-pyrrolidin-1-yl-pyridin-4-yl)-amide]
